{
  "source": "patent US20240075000A1",
  "about": "(priority 2021, published 2024)",
  "key": {"[1]": {"test_system": "post-COVID-19 fatigue patient", "experiment": "post-COVID-19 fatigue case, physician (Example 3)", "conditions": "500 mg BID; for Visual Fatigue Score: baseline 3, range 0 worst to 10 no fatigue; for Chalder Fatigue Score: range 33 worst to 0 no fatigue; for Fatigue Severity Score: baseline 54, range 63 worst to 9 no fatigue; for PROMIS Fatigue 7a: range 35 worst to 7 no fatigue"}, "patient": {"test_system": "patient", "experiment": "one-year high-dose tolerability in a patient", "type": "in vivo, human", "conditions": "up to 6,000 mg/day for one year in a patient"}, "[2]": {"test_system": "post-COVID-19 fatigue patient", "experiment": "post-COVID-19 fatigue case (Example 5)", "type": "in vivo, human", "conditions": "500 mg BID", "procedure": "Afterwards, although their fever was resolved, they experienced fatigue so extreme that it was difficult for them to walk to the bathroom. They started taking 500 mg anhydrous enol-oxaloacetate BID for 45 days. Within 3 days 80% of fatigue was resolved. After 30 days, 100% of their fatigue was resolved."}, "[3]": {"test_system": "Amyotrophic Lateral Sclerosis (ALS) patients", "experiment": "Phase 1 clinical trial in ALS, patient testimonials", "type": "in vivo, human", "conditions": "1000 mg BID, dose taken without food; went away on eating", "procedure": "A Phase 1 clinical trial was conducted with the Inventor supplying the anhydrous enol-oxaloacetate drug. Typically, Phase 1 clinical trials focus on the safety of a proposed drug, but patient response efficacy is also important and is noted. […] My name is […]. I was diagnosed with Bulbar onset ALS by Dr. Jawdat at the KU Medical Center in Kansas City KS on Oct. 14, 2020. […] I have muscle fasciculations pretty much all over my body at times and most are constant. The first 4 to 5 days taking the supplement, I did feel like they intensified an hour to two hours after taking it, and it lasted for approximately an hour or two. After those 4 or 5 days, it went back to the normal strength. At approximately the third week of taking the supplement I began to notice my tongue movement had better range of motion. I could see it pushing out the side of my cheek, I couldn't get it over there before. I also have felt like my left hand has gained a little strength and grip and I feel like I have a bit more strength in my left wrist. I do however feel like most things are still declining, but with such a short time of trying the supplement, I want to keep taking it to see if things can keep improving/changing. I am currently not on any ALS medications but do take some vitamins. • Patient 2. My spouse, Nathan, was part of a study with oxaloacetate for ALS. […]"}},
  "note": "Structures can show the parent of a compound that is named as a salt.",
  "data": [
    {"compound": "O=C(O)CC(=O)C(=O)O", "note": "[anhydrous enol-oxaloacetate, hydroxy fumarate]", "values": [
      {"measurement": "Visual Fatigue Score", "setting": "[1]; Final, Dec. 3, 2020", "value": 10},
      {"measurement": "Chalder Fatigue Score", "setting": "[1]; Final, Dec. 3, 2020, baseline 22", "value": 2},
      {"measurement": "Fatigue Severity Score", "setting": "[1]; Final, Dec. 3, 2020", "value": 20},
      {"measurement": "PROMIS Fatigue 7a", "setting": "[1]; Final, Dec. 3, 2020", "value": 11},
      {"measurement": "Visual Fatigue Score", "setting": "[1]; Nov. 3, 2020", "value": 4},
      {"measurement": "Fatigue Severity Score", "setting": "[1]; Nov. 3, 2020", "value": 54},
      {"measurement": "PROMIS Fatigue 7a", "setting": "[1]; Nov. 3, 2020, baseline N/A", "value": 25},
      {"measurement": "Chalder Fatigue Score", "setting": "[1]; Nov. 3, 2020, baseline Oct. 14, 2020 22", "value": 16},
      {"measurement": "side effects", "setting": "patient", "value": "no negative side effects"},
      {"measurement": "fatigue resolved", "setting": "[2]; after 30 days", "value": 100, "unit": "%"},
      {"measurement": "fatigue resolved", "setting": "[2]; within 3 days", "value": 80, "unit": "%"},
      {"measurement": "side effect noticed by the patient", "setting": "[3]", "value": "upset stomach"}
    ]}
  ]
}
